According to patent publication US10004701B2, “Methods and compositions for treating infection” (UNIVERSITY OF ROCHESTER, priority 2012, dated 2018):
Structures can show the parent of a compound that is named as a salt. Where two headings read alike, the source gives them in different places.

Tests used:
Assay in all cases: AK assay 384-well format, Prestwick library screening
E. coli = assay type: cell-based, Escherichia coli; details: 50 μM final drug concentration; for fold induction at 50 µM: Escherichia coli, 3 h
E. cloacae = assay type: cell-based, Enterobacter cloacae; details: 50 μM final drug concentration; for fold induction at 50 µM: Enterobacter cloacae, 3 h
P. aeruginosa = assay type: cell-based, Pseudomonas aeruginosa; details: 50 μM final drug concentration; for fold induction at 50 µM: Pseudomonas aeruginosa, 3 h
[1] = test system: A. baumannii strain 98-37-09; assay type: cell-based, Acinetobacter baumannii; details: 50 μM final drug concentration; for fold induction at 50 µM: Acinetobacter baumannii, 983709, 3 h
[2] = test system: S. aureus strain USA300-0114; assay type: cell-based, Staphylococcus aureus; details: for fold induction at 50 µM: Staphylococcus aureus, USA300, 3 h
K. pneumoniae = assay type: cell-based, Klebsiella pneumoniae; details: 50 μM final drug concentration; for fold induction at 50 µM: Klebsiella pneumoniae, 3 h
E. faecium = assay type: cell-based, Enterococcus faecium; details: 50 μM final drug concentration; for fold induction at 50 µM: Enterococcus faecium, 3 h
[3] = planktonic, cutoff for positive-scoring molecules 3-fold increase, read-out: AK-based Prestwick Library Screening Results, E. coli (fold increase in extracellular AK activity)
[4] = planktonic, cutoff for positive-scoring molecules 3-fold increase, read-out: AK-based Prestwick Library Screening Results, E. cloacae (fold increase in extracellular AK activity)
[5] = planktonic, cutoff for positive-scoring molecules 3-fold increase, read-out: AK-based Prestwick Library Screening Results, P. aeruginosa (fold increase in extracellular AK activity)
[6] = planktonic, cutoff for positive-scoring molecules 3-fold increase, read-out: AK-based Prestwick Library Screening Results, A. baumannii (fold increase in extracellular AK activity)
[7] = 50 μM final drug concentration, planktonic, cutoff for positive-scoring molecules 3-fold increase, read-out: AK-based Prestwick Library Screening Results, S. aureus (fold increase in extracellular AK activity)
[8] = planktonic, cutoff for positive-scoring molecules 3-fold increase, read-out: AK-based Prestwick Library Screening Results, K. pneumoniae (fold increase in extracellular AK activity)
[9] = planktonic, cutoff for positive-scoring molecules 3-fold increase, read-out: AK-based Prestwick Library Screening Results, E. faecium (fold increase in extracellular AK activity)
[10] = planktonic E. coli, cutoff for positive-scoring molecules 3-fold increase, read-out: AK-based Prestwick Library Screening Results, E. coli (increase in extracellular AK activity)
[11] = planktonic E. cloacae, cutoff for positive-scoring molecules 3-fold increase, read-out: AK-based Prestwick Library Screening Results, E. cloacae (increase in extracellular AK activity)
[12] = planktonic P. aeruginosa, cutoff for positive-scoring molecules 3-fold increase, read-out: AK-based Prestwick Library Screening Results, P. aeruginosa (increase in extracellular AK activity)
[13] = planktonic A. baumannii, cutoff for positive-scoring molecules 3-fold increase, read-out: AK-based Prestwick Library Screening Results, A. baumannii (increase in extracellular AK activity)
[14] = planktonic S. aureus, 50 μM final drug concentration, cutoff for positive-scoring molecules 3-fold increase, read-out: AK-based Prestwick Library Screening Results, S. aureus (increase in extracellular AK activity)
[15] = planktonic K. pneumoniae, cutoff for positive-scoring molecules 3-fold increase, read-out: AK-based Prestwick Library Screening Results, K. pneumoniae (increase in extracellular AK activity)
[16] = planktonic E. faecium, cutoff for positive-scoring molecules 3-fold increase, read-out: AK-based Prestwick Library Screening Results, E. faecium (increase in extracellular AK activity)
[17] = planktonic E. coli, 384-well, cutoff for positive-scoring molecules 3-fold increase, read-out: AK-based Prestwick Library Screening Results: E. coli (increase in extracellular AK activity)
[18] = planktonic E. cloacae, 384-well, cutoff for positive-scoring molecules 3-fold increase, read-out: AK-based Prestwick Library Screening Results: E. cloacae (increase in extracellular AK activity)
[19] = planktonic P. aeruginosa, 384-well, cutoff for positive-scoring molecules 3-fold increase, read-out: AK-based Prestwick Library Screening Results: P. aeruginosa (increase in extracellular AK activity)
[20] = planktonic A. baumannii, 384-well, cutoff for positive-scoring molecules 3-fold increase, read-out: AK-based Prestwick Library Screening Results: A. baumannii (increase in extracellular AK activity)
[21] = planktonic S. aureus, 50 μM final drug concentration, 384-well, cutoff for positive-scoring molecules 3-fold increase, read-out: AK-based Prestwick Library Screening Results: S. aureus (increase in extracellular AK activity)
[22] = planktonic K. pneumoniae, 384-well, cutoff for positive-scoring molecules 3-fold increase, read-out: AK-based Prestwick Library Screening Results: K. pneumoniae (increase in extracellular AK activity)
[23] = planktonic E. faecium, 384-well, cutoff for positive-scoring molecules 3-fold increase, read-out: AK-based Prestwick Library Screening Results: E. faecium (increase in extracellular AK activity)

SMILES: COC(=O)C1=C(C)NC(C)=C(C(=O)OCC(C)C)C1c1ccccc1[N+](=O)[O-] (centres unmarked) [Nisoldipine]
- fold induction at 50 µM (E. coli; [3]): 0.9
- fold induction at 50 µM (E. cloacae; [4]): 1
- fold induction at 50 µM (P. aeruginosa; [5]): 0.8
- fold induction at 50 µM [1, 6]: 1.4
- fold induction at 50 µM [2, 7]: 0.4
- fold induction at 50 µM (K. pneumoniae; [8]): 0.7
- fold induction at 50 µM (E. faecium; [9]): 0.9

SMILES: Cc1cnc(NC(=O)C2=C(O)c3ccccc3S(=O)(=O)N2C)s1 [Meloxicam]
- fold induction at 50 µM (E. coli; [10]): 1
- fold induction at 50 µM (E. cloacae; [11]): 1.2
- fold induction at 50 µM (P. aeruginosa; [12]): 0.9
- fold induction at 50 µM [1, 13]: 0.9
- fold induction at 50 µM [2, 14]: 2
- fold induction at 50 µM (K. pneumoniae; [15]): 0.8
- fold induction at 50 µM (E. faecium; [16]): 0.9

SMILES: COc1ccc(C(Cl)=C(c2ccc(OC)cc2)c2ccc(OC)cc2)cc1 [Chlorotrianisene]
- fold induction at 50 µM (E. coli; [3]): 0.9
- fold induction at 50 µM (E. cloacae; [4]): 1.4
- fold induction at 50 µM (P. aeruginosa; [5]): 0.8
- fold induction at 50 µM [1, 6]: 0.8
- fold induction at 50 µM [2, 7]: 0.8
- fold induction at 50 µM (K. pneumoniae; [8]): 0.8
- fold induction at 50 µM (E. faecium; [9]): 1

SMILES: CC(Cc1cccc(C(F)(F)F)c1)NCCOC(=O)c1ccccc1 (centres unmarked) [Benfluorex hydrochloride]
- fold induction at 50 µM (E. coli; [10]): 1.4
- fold induction at 50 µM (E. cloacae; [11]): 1.4
- fold induction at 50 µM (P. aeruginosa; [12]): 1.1
- fold induction at 50 µM [1, 13]: 1
- fold induction at 50 µM [2, 14]: 1.2
- fold induction at 50 µM (K. pneumoniae; [15]): 1.1
- fold induction at 50 µM (E. faecium; [16]): 0.9

SMILES: O=C(O)c1cc(=O)c2c(OCC(O)COc3cccc4oc(C(=O)O)cc(=O)c34)cccc2o1 [Cromolyn disodium salt]
- fold induction at 50 µM (E. coli; [3]): 0.7
- fold induction at 50 µM (E. cloacae; [4]): 1
- fold induction at 50 µM (P. aeruginosa; [5]): 0.8
- fold induction at 50 µM [1, 6]: 0.9
- fold induction at 50 µM [2, 7]: 0.7
- fold induction at 50 µM (K. pneumoniae; [8]): 0.7
- fold induction at 50 µM (E. faecium; [9]): 0.9

SMILES: CC(C)/N=c1\cc2n(-c3ccc(Cl)cc3)c3ccccc3nc-2cc1Nc1ccc(Cl)cc1 [Clofazimine, clofazimine, reference compound]
- fold induction at 50 µM (E. coli; planktonic, cutoff for positive 3-fold increase, read-out: AK-based Prestwick Library Screening Results, E. coli (fold increase in extracellular AK activity)): 1.2
- fold induction at 50 µM (E. cloacae; planktonic, cutoff for positive 3-fold increase, read-out: AK-based Prestwick Library Screening Results, E. cloacae (fold increase in extracellular AK activity)): 1.8
- fold induction at 50 µM (P. aeruginosa; planktonic, cutoff for positive 3-fold increase, read-out: AK-based Prestwick Library Screening Results, P. aeruginosa (fold increase in extracellular AK activity)): 1
- fold induction at 50 µM ([1]; planktonic, cutoff for positive 3-fold increase, read-out: AK-based Prestwick Library Screening Results, A. baumannii (fold increase in extracellular AK activity)): 5
- activity in AK Prestwick screen ([2]; S. aureus USA300-0114, 50 μM, cutoff 3-fold increase in AK): active
- fold induction at 50 µM ([2]; 50 μM final drug concentration, planktonic, cutoff for positive 3-fold increase, read-out: AK-based Prestwick Library Screening Results, S. aureus (fold increase in extracellular AK activity)): 4.6
- fold induction at 50 µM (K. pneumoniae; planktonic, cutoff for positive 3-fold increase, read-out: AK-based Prestwick Library Screening Results, K. pneumoniae (fold increase in extracellular AK activity)): 1.1
- fold induction at 50 µM (E. faecium; planktonic, cutoff for positive 3-fold increase, read-out: AK-based Prestwick Library Screening Results, E. faecium (fold increase in extracellular AK activity)): 1

SMILES: CN(C)[C@@H]1C(O)=C(C(N)=O)C(=O)[C@@]2(O)C(O)=C3C(=O)c4c(O)ccc(Cl)c4[C@@](C)(O)[C@H]3C[C@@H]12 [Chlortetracycline hydrochloride]
- fold induction at 50 µM (E. coli; [17]): 0.8
- fold induction at 50 µM (E. cloacae; [18]): 1
- fold induction at 50 µM (P. aeruginosa; [19]): 0.7
- fold induction at 50 µM [1, 20]: 3.9
- fold induction at 50 µM [2, 21]: 6.8
- fold induction at 50 µM (K. pneumoniae; [22]): 0.2
- fold induction at 50 µM (E. faecium; [23]): 0.9

SMILES: NC[C@H]1CC[C@H](C(=O)O)CC1 [Tranexamic acid]
- fold induction at 50 µM (E. coli; 384-well format, cutoff for positive-scoring molecules 3-fold increase, read-out: AK-based Prestwick Library Screening Results, E. coli (increase in extracellular AK activity)): 0.8
- fold induction at 50 µM (E. cloacae; 384-well format, cutoff for positive-scoring molecules 3-fold increase, read-out: AK-based Prestwick Library Screening Results, E. cloacae (increase in extracellular AK activity)): 0.9
- fold induction at 50 µM (P. aeruginosa; 384-well format, cutoff for positive-scoring molecules 3-fold increase, read-out: AK-based Prestwick Library Screening Results, P. aeruginosa (increase in extracellular AK activity)): 0.9
- fold induction at 50 µM ([1]; 384-well format, cutoff for positive-scoring molecules 3-fold increase, read-out: AK-based Prestwick Library Screening Results, A. baumannii (increase in extracellular AK activity)): 0.8
- fold induction at 50 µM ([2]; 50 μM final drug concentration, 384-well format, cutoff for positive-scoring molecules 3-fold increase, read-out: AK-based Prestwick Library Screening Results, S. aureus (increase in extracellular AK activity)): 0.7
- fold induction at 50 µM (K. pneumoniae; 384-well format, cutoff for positive-scoring molecules 3-fold increase, read-out: AK-based Prestwick Library Screening Results, K. pneumoniae (increase in extracellular AK activity)): 0.7
- fold induction at 50 µM (E. faecium; 384-well format, cutoff for positive-scoring molecules 3-fold increase, read-out: AK-based Prestwick Library Screening Results, E. faecium (increase in extracellular AK activity)): 1.1

SMILES: CCn1cc(C(=O)O)c(=O)c2cc(F)c(N3CCNC(C)C3)c(F)c21 (centres unmarked) [Lomefloxacin hydrochloride]
- fold induction at 50 µM (E. coli; [17]): 26.8
- fold induction at 50 µM (E. cloacae; [18]): 3.5
- fold induction at 50 µM (P. aeruginosa; [19]): 30.2
- fold induction at 50 µM [1, 20]: 3.8
- fold induction at 50 µM [2, 21]: 3.4
- fold induction at 50 µM (K. pneumoniae; [22]): 1
- fold induction at 50 µM (E. faecium; [23]): 1.5

SMILES: C[C@](N)(Cc1ccc(O)c(O)c1)C(=O)O [Methyldopa (L,−)]
- AK-based Prestwick Library Screening Results: E. coli (increase in extracellular AK activity) (E. coli; planktonic E. coli, 384-well, cutoff for positive-scoring molecules 3-fold increase): 0.6
- AK-based Prestwick Library Screening Results: E. cloacae (increase in extracellular AK activity) (E. cloacae; planktonic E. cloacae, 384-well, cutoff for positive-scoring molecules 3-fold increase): 0.5
- AK-based Prestwick Library Screening Results: P. aeruginosa (increase in extracellular AK activity) (P. aeruginosa; planktonic P. aeruginosa, 384-well, cutoff for positive-scoring molecules 3-fold increase): 0.4
- AK-based Prestwick Library Screening Results: A. baumannii (increase in extracellular AK activity) ([1]; planktonic A. baumannii, 384-well, cutoff for positive-scoring molecules 3-fold increase): 0.5
- AK-based Prestwick Library Screening Results: S. aureus (increase in extracellular AK activity) ([2]; planktonic S. aureus, 50 μM final drug concentration, 384-well, cutoff for positive-scoring molecules 3-fold increase): 0.4
- AK-based Prestwick Library Screening Results: K. pneumoniae (increase in extracellular AK activity) (K. pneumoniae; planktonic K. pneumoniae, 384-well, cutoff for positive-scoring molecules 3-fold increase): 0.6
- AK-based Prestwick Library Screening Results: E. faecium (increase in extracellular AK activity) (E. faecium; planktonic E. faecium, 384-well, cutoff for positive-scoring molecules 3-fold increase): 0.9
